What is called clearance is a measure of how efficiently the substance is removed, as volume per time.

These results are taken from patent US20250152584A1, “NLRP3 INFLAMMASOME INHIBITOR AND USES THEREOF” (TransThera Sciences (Nanjing), Inc., priority 2022, published 2025).

Data set [1] in a line: Pharmacokinetic study in C57BL/6J mice. Format: in vivo. The conditions noted are these: mouse, plasma, C57BL/6J female mice; for Tmax: median, read-out: Tmax po (peak time of plasma concentration); for Cmax: read-out: Cmax po (peak concentration); for clearance: read-out: Cl—obs iv (clearance rate) (converted); for Vd: read-out: Vss iv (volume of distribution); for bioavailability: iv 5 mg/kg / po 10 mg/kg, read-out: F % (absolute bioavailability). As for the experimental part:
Experimental Example 2: Pharmacokinetic Study of Compounds in C57BL/6J Mice
Compound 100, Compound 54, Compound 174, Compound 179, and Compound 253 were prepared into solutions with a mixed solvent formulated from 5% dimethyl sulfoxide, 20% (30% solutol) and 75% normal saline, respectively; the solution of each compound was administered to C57BL/6J female mice by gavage at a dose of 10 mg/kg; and the time points for blood collection were: 15 min, 30 min, 1 h, 2 h, 4 h, 6 h, 8 h and 24 h. The solution of the compound was administered to C57BL/6J female mice by intravenous bolus at a dose of 5 mg/kg, and the time points for blood collection were as follows: 5 min, 15 min, 30 min, 1 h, 2 h, 4 h, 6 h, 8 h, and 24 h.
Compound 1 was prepared into a solution with a mixed solvent formulated from 5% DME, 20% (30% solutol) and 75% normal saline; the solution of this compound was administered to C57BL/6J female mice by gavage at a dose of 10 mg/kg, and the time points for blood collection were: 15 min, 30 min, 1 h, 2 h, 4 h, 6 h, 8 h, and 24 h. The solution of the compound was administered to C57BL/6J female mice by intravenous bolus at a dose of 5 mg/kg, and the time points for blood collection were as follows: 5 min, 15 min, 30 min, 1 h, 2 h, 4 h, 6 h, 8 h, and 24 h.
Compound 195 was prepared into a solution with a mixed solvent formulated from 5% dimethyl sulfoxide, 20% PEG400 and 75% normal saline; the solution of this compound was administered to C57BL/6J female mice by gavage at a dose of 10 mg/kg; and the time points for blood collection were 15 min, 30 min, 1 h, 2 h, 4 h, 6 h, 8 h, and 24 b. The solution of the compound was administered to C57BL/6J female mice by intravenous bolus at a dose of 5 mg/kg, and the time points for blood collection were as follows: 5 min, 15 min, 30 min, 1 h, 2 b, 4 h, 6 h, 8 h, and 24 h.
Approximately 100 μL of blood was collected through the retroorbital venous plexus, and was then placed in an anticoagulant tube containing EDTA-K2. Blood samples were centrifuged at 12,000 rpm for 10 min at 4° C. to obtain plasma samples, and plasma was prepared within 30 min after blood collection. The plasma was stored in a −80° C. freezer before testing.
• 1. The samples were taken from the −80° C. freezer, thawed naturally at room temperature, and then vortexed for 5 min • 2. 10 μL of a plasma sample was precisely pipetted from different individuals into a 1.5 mL centrifuge tube. • 3. 300 μL of an internal standard working solution (the acetonitrile solution of tolbutamide) at a concentration of […] was added and mixed well. • 4. After vortexing for 5 min, the mixture was centrifuged at 12,000 rpm for 5 min. • 5. 50 μL of the supernatant was accurately pipetted into a 96-well plate preloaded with water at 150 μL/well. • 6. Vortexing was performed for 5 min for sufficient mixing, and LC-MS/MS analysis was then conducted.
(§1) The results of the concentrations of the compounds under test were output using Analyst 1.6.3 of AB. Parameters such as mean, standard deviation, coefficient of variation was calculated by Microsoft Excel (parameters directly output by Analyst 1.6.3 needed no calculation), and PK parameters were calculated by WinNonlin Phenoix 8.2 software NCA (Tmax as the median).

Data set [2] is described as follows: Pharmacokinetic study in SD male rats. Format: in vivo. The conditions noted are these: rat, plasma; for clearance: read-out: Cl—obs iv (clearance rate) (converted); for Vd: read-out: Vss iv (volume of distribution); for bioavailability: iv 1.0 mg/kg / po 5.0 mg/kg, read-out: F % (absolute bioavailability); for Tmax: median, read-out: Tmax po (peak time of plasma concentration); for Cmax: read-out: Cmax po (peak concentration). Here is the method:
Experimental Example 3: Pharmacokinetic Study of Compounds in SD Male Rats
Compound 54, Compound 55, Compound 174, Compound 173, and Compound 264 were prepared into solutions with a mixed solvent formulated from 5% dimethyl sulfoxide, 20% (30% solutol) and 75% normal saline, respectively; the solution of each compound was administered to SD male rats by gavage at a dose of 5.0 mg/kg; and the time points for blood collection were: 15 min, 30 min, 1 h, 2 h, 4 h, 6 h, 8 h, 10 h and 24 h. The solution of the compound was administered to male SD rats by intravenous bolus at a dose of 1.0 mg/kg, and the time points for blood collection were as follows: 5 min, 15 min, 30 min, 1 h, 2 h, 4 h, 6 h, 8 h, 10 h, and 24 h.
On the day before administration, the jugular vein of each animal was cannulated; and after administration, about 300 μL of blood was collected through the jugular vein, and then placed in an anticoagulant tube containing EDTA-K2. Blood samples were centrifuged at 12,000 rpm for 10 min at 4° C. to obtain plasma samples, and plasma was prepared within 30 min after blood collection. The plasma was stored in a −80° C. freezer before testing.
• 1. The samples were taken from the −80° C. freezer, thawed naturally at room temperature, and then vortexed for 5 min. • 2. 30 μL of a plasma sample was precisely pipetted into a 1.5 mL centrifuge tube. • 3. 750 μL of an internal standard working solution (the acetonitrile solution of tolbutamide) at a concentration of […] was added and mixed well. • 4. After vortexing for 5 min, the mixture was centrifuged at 12,000 rpm for 5 min. • 5. 50 μL of the supernatant was accurately pipetted into a 96-well plate preloaded with water at 150 μL/well. • 6. Vortexing was performed for 5 min for sufficient mixing, and LC-MS/MS analysis was then conducted.
as §1

[3] abbreviates: po, gavage 10 mg/kg, read-out: AUClast po (area under the drug-time curve for 0-24 h).
Where [4] appears, read: po, gavage 10 mg/kg, read-out: tz1/2 po (terminal elimination half-life) (converted).
Setting [5] is: intravenous bolus 5 mg/kg, read-out: AUClast iv (area under the drug-time curve for 0-24 h).
Setting [6] is: intravenous bolus 5 mg/kg, read-out: tz1/2 iv (terminal elimination half-life) (converted).
[7] abbreviates: intravenous bolus 1.0 mg/kg, read-out: AUClast iv (area under the drug-time curve for 0-24 h).
The mark [8] stands for this setting: intravenous bolus 1.0 mg/kg, read-out: tz1/2 iv (terminal elimination half-life) (converted).
[9] abbreviates: po, gavage 5.0 mg/kg, read-out: AUClast po (area under the drug-time curve for 0-24 h).
[10] abbreviates: po, gavage 5.0 mg/kg, read-out: tz1/2 po (terminal elimination half-life) (converted).

In the case of `C#Cc1ccc(-c2nnc(N[C@@H]3CCCN(C)C3)c3c2CCCC3)c(O)c1` [Compound 1, (R)-5-ethynyl-2-(4-((1-methylpiperidin-3-yl)amino)-5,6,7,8-tetrahydrophthalazin-1-yl)phenol], in data set [1] (po, gavage 10 mg/kg), the Tmax is 0.25 h and the Cmax is 428 ng/mL. The AUC(0-t) in data set [1] (setting [3]) was determined as 1890 ng·h/mL. In data set [1] (setting [4]), the half-life is 3 h. In addition, in data set [1] (setting [5]), the AUC(0-t) was 1820 ng·h/mL. In data set [1] (intravenous bolus 5 mg/kg), the clearance is 44 mL/min/kg and the Vd stood at 5.22 L/kg. The half-life in data set [1] (setting [6]) is 3.85 h. Besides, the bioavailability in data set [1] was 49.9%.
Consider `C#Cc1ccc(-c2nnc(N[C@H]3C[C@@](C)(O)C3)cc2C)c(O)c1` [Compound 55, 5-ethynyl-2-(6-(((cis)-3-hydroxyl-3-methylcyclobutyl)amino)-4-methylpyridazin-3-yl)phenol], for which the values for the AUC(0-t) in data set [2] (setting [7]) and in data set [2] (setting [9]) were 5130 ng·h/mL and 38500 ng·h/mL, respectively. The clearance in data set [2] (intravenous bolus 1.0 mg/kg) is 3.17 mL/min/kg. Also, the Vd in data set [2] (intravenous bolus 1.0 mg/kg) is 1.12 L/kg. For the same molecule, the half-life was 5.24 h in data set [2] (setting [8]) and 7.18 h in data set [2] (setting [10]). Moreover, the bioavailability in data set [2] was 163%. In addition, the Tmax in data set [2] (po, gavage 5.0 mg/kg) was 2 h. Moreover, the Cmax in data set [2] (po, gavage 5.0 mg/kg) was 3050 ng/mL.
As for `C#Cc1ccc(-c2nnc(N[C@@H]3CCCN(C)C3)c3ccccc23)c(O)c1` [Compound 100, (R)-5-ethynyl-2-(4-((1-methylpiperidin-3-yl)amino)phthalazin-1-yl)phenol], the Tmax in data set [1] (po, gavage 10 mg/kg) is 2 h. Moreover, the AUC(0-t) in data set [1] (setting [3]) turned out to be 10100 ng·h/mL; in data set [1] (setting [5]) it was 6360 ng·h/mL. Also, the Cmax in data set [1] (po, gavage 10 mg/kg) is 1530 ng/mL. The values for the half-life in data set [1] (setting [4]) and in data set [1] (setting [6]) were 2.76 h and 3.04 h, respectively. Moreover, in data set [1] (intravenous bolus 5 mg/kg), the clearance was 13.1 mL/min/kg. Further, in data set [1] (intravenous bolus 5 mg/kg), the Vd amounted to 3.16 L/kg. Further, the bioavailability in data set [1] stood at 79.4%.
In the case of `C#Cc1ccc(-c2nnc(N[C@@H]3CCCN(C)C3)cc2C2CC2)c(O)c1` [Compound 173, (R)-2-(4-cyclopropyl-6-((1-methylpiperidin-3-yl)amino)pyridazin-3-yl)-5-ethynylphenol], in data set [2] (setting [7]), the AUC(0-t) stood at 1100 ng·h/mL. For the same molecule, in data set [2] (intravenous bolus 1.0 mg/kg), the clearance is 14.3 mL/min/kg and the Vd came out at 6.92 L/kg. For the same molecule, the half-life in data set [2] (setting [8]) was 6.13 h. Also, in data set [2], the bioavailability is 85.6%. In addition, in data set [2] (po, gavage 5.0 mg/kg), the Tmax is 4 h and the Cmax came to 395 ng/mL. The AUC(0-t) in data set [2] (setting [9]) was 4690 ng·h/mL. In addition, the half-life in data set [2] (setting [10]) was 5.72 h.
Take `C#Cc1ccc(-c2nnc(N[C@@H]3CCCN(C)C3)nc2C2CC2)c(O)c1` [Compound 179, (R)-2-(5-cyclopropyl-3-((1-methylpiperidin-3-yl)amino)-1,2,4-triazin-6-yl)-5-ethynylphenol]: in data set [1] (po, gavage 10 mg/kg), the Tmax came out at 0.5 h and the Cmax came out at 1120 ng/mL. Moreover, in data set [1] (setting [3]), the AUC(0-t) turned out to be 3860 ng·h/mL. The half-life in data set [1] (setting [4]) is 2.19 h. For the same molecule, the AUC(0-t) in data set [1] (setting [5]) was determined as 2470 ng·h/mL. Further, in data set [1] (intravenous bolus 5 mg/kg), the clearance was 32.8 mL/min/kg and the Vd was determined as 5.14 L/kg. Further, the half-life in data set [1] (setting [6]) is 2.01 h. Besides, the bioavailability in data set [1] amounted to 79.2%.
Turning to `C#Cc1ccc(-c2nnc(N[C@@H]3CCCN(CCO)C3)cc2C)c(O)c1` [Compound 253, (R)-5-ethynyl-2-(6-((1-(2-hydroxyethyl)piperidin-3-yl)amino)-4-methylpyridazin-3-yl)phenol], in data set [1] (po, gavage 10 mg/kg), the Tmax came out at 0.5 h and the Cmax is 2320 ng/mL. In data set [1] (setting [3]), the AUC(0-t) worked out at 6900 ng·h/mL. In data set [1] (setting [4]), the half-life is 3.49 h. The AUC(0-t) in data set [1] (setting [5]) amounted to 3200 ng·h/mL. In data set [1] (intravenous bolus 5 mg/kg), the clearance was 25.5 mL/min/kg and the Vd amounted to 2.76 L/kg. Also, in data set [1] (setting [6]), the half-life is 1.5 h. For the same molecule, the bioavailability in data set [1] came out at 106%.
As for `CC#Cc1ccc(-c2nnc(N[C@@H]3CCCN(C)C3)cc2C2CC2)c(O)c1` [Compound 264, (R)-2-(4-cyclopropyl-6-((1-methylpiperidin-3-yl)amino)pyridazin-3-yl)-5-(propyl-1-alkyn-1-yl)phenol], the AUC(0-t) is 811 ng·h/mL in data set [2] (setting [7]) and 3120 ng·h/mL in data set [2] (setting [9]). Further, the clearance in data set [2] (intravenous bolus 1.0 mg/kg) was 17.5 mL/min/kg. The Vd in data set [2] (intravenous bolus 1.0 mg/kg) is 12.5 L/kg. In addition, the values for the half-life in data set [2] (setting [8]) and in data set [2] (setting [10]) were 8.89 h and 7.26 h, respectively. In data set [2], the bioavailability was 72.8%. Further, the Tmax in data set [2] (po, gavage 5.0 mg/kg) is 4 h. Also, the Cmax in data set [2] (po, gavage 5.0 mg/kg) was 230 ng/mL.
